Assay results published in publication PMC10498358 (2023).

How the values were obtained:
[1] = test system: pApU (poly A–poly U) (RNA, polymer) A/U; assay: UV thermal denaturation at 260 nm; details: I = 0.05 M (sodium cacodylate); sodium cacodylate buffer, pH 7.0; r = [compound]/[RNA] = 0.3; error ±0.5 °C; per base
[2] = test system: p(dGdC)2 (poly dGdC–poly dGdC) (DNA, polymer) GC; assay: fluorescence titration, Scatchard fit; details: I = 0.05 M (sodium cacodylate); sodium cacodylate buffer, pH 7.0; polynucleotide concentration as phosphates; n fixed at 0.2; per base
[3] = test system: p(dAdT)2 (poly dAdT–poly dAdT) (DNA, polymer) AT; assay: fluorescence titration, Scatchard fit; details: I = 0.05 M (sodium cacodylate); sodium cacodylate buffer, pH 7.0; polynucleotide concentration as phosphates; n fixed at 0.2; per base
[4] = test system: pApU (poly A–poly U) (RNA, polymer) A/U; assay: fluorescence titration, Scatchard fit; details: I = 0.05 M (sodium cacodylate); sodium cacodylate buffer, pH 7.0; polynucleotide concentration as phosphates; n fixed at 0.2; per base

| ΔTm [1] | log K [2] | log K [3] | log K [4] | SMILES |
| --- | --- | --- | --- | --- |
| +1 °C | 5.7 | 7.4 | 6.4 | COc1c2cc(N)cc1Cc1cc(C(C)(C)C)cc(c1OCc1nccn1C)Cc1cc(NC(=O)CCCc3ccc4ccc5cccc6ccc3c4c56)cc(c1OC)Cc1cc(C(C)(C)C)cc(c1OCc1nccn1C)C2 |
| -1 °C | 6.9 | 6.6 | 7.2 | COc1c2cc(NC(=O)CCCc3ccc4ccc5cccc6ccc3c4c56)cc1Cc1cc(C(C)(C)C)cc(c1OCc1nccn1C)Cc1cc(NC(=O)CCCc3ccc4ccc5cccc6ccc3c4c56)cc(c1OC)Cc1cc(C(C)(C)C)cc(c1OCc1nccn1C)C2 |
